Data as given in patent publication US8030498B2, “Benzoylpyrazole compounds and herbicides containing them” (Ishihara Sangyo Kaisha, Ltd., priority 2005, dated 2011).

Key:
[1] = system: crabgrass (Digitaria sanguinalis L.); assay: Test Example 1: foliar treatment, growth inhibition rate, crabgrass; type: in vivo; details: visually observed 17th to 23rd day after application
How it was run: (§1)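 Visual scoring of growth inhibition, 0% (untreated) to 100% (complete kill), on days 17–23 following post-emergence spray of formulated compound in water (500 L/ha, 0.1 vol % spreader); plants treated at set leaf stages, e.g. corn 2.0–3.5, wheat 1.7–3.4.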

corn (Zea mays L.) = assay: Test Example 1: foliar treatment, growth inhibition rate, corn; type: in vivo; details: visually observed 17th to 23rd day after application
How it was run: (§2)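 Potted upland soil; compounds as wettable powders or emulsifiable concentrates diluted in water at 500 L/ha plus 0.1 vol % spreader, foliar-sprayed at defined leaf stages (rice 1.0–2.5, wheat 1.7–3.4, corn 2.0–3.5, greenfoxtail 1.0–3.0). Growth inhibition (0–100%) scored visually 17–23 days after application.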

redroot pigweed = assay: Test Example 2: soil application on the day after sowing, growth inhibition rate, redroot pigweed; type: in vivo, Amaranthus retroflexus L.; details: 250 g/ha active ingredient, observed on 19th to 24th day
How it was run: (§3)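 Upland soil pots sown with crop and weed seeds; next day wettable powder or emulsifiable concentrate at prescribed active-ingredient amounts, diluted to 500 L/ha water, sprayed onto soil. Growth inhibition scored visually 19–24 days later, 0 (as untreated) to 100% (complete kill).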

[2] = system: redroot pigweed (Amaranthus retroflexus L.); assay: Test Example 1: foliar treatment, growth inhibition rate, redroot pigweed; type: in vivo; details: visually observed 17th to 23rd day after application
How it was run: as §1

crabgrass = assay: Test Example 2: soil application on the day after sowing, growth inhibition rate, crabgrass; type: in vivo, Digitaria sanguinalis L.; details: 250 g/ha active ingredient, observed on 19th to 24th day
How it was run: as §3

rice (Oryza sativa L.) = assay: Test Example 1: foliar treatment, growth inhibition rate, rice; type: in vivo; details: visually observed 17th to 23rd day after application
How it was run: as §2

barnyardgrass = assay: Test Example 2: soil application on the day after sowing, growth inhibition rate, barnyardgrass; type: in vivo, Echinochloa crus-galli L.; details: 250 g/ha active ingredient, observed on 19th to 24th day
How it was run: as §3

rice = assay: Test Example 2: soil application on the day after sowing, growth inhibition rate, rice; type: in vivo, Oryza sativa L.; details: 250 g/ha active ingredient, observed on 19th to 24th day
How it was run: as §3

soybean = assay: Test Example 2: soil application on the day after sowing, growth inhibition rate, soybean; type: in vivo, Glycine max Merr.; details: 250 g/ha active ingredient, observed on 19th to 24th day
How it was run: as §3

[3] = system: prickly sida (Sida spinosa L.); assay: Test Example 1: foliar treatment, growth inhibition rate, prickly sida; type: in vivo; details: visually observed 17th to 23rd day after application
How it was run: as §1

[4] = system: barnyardgrass (Echinochloa crus-galli L.); assay: Test Example 1: foliar treatment, growth inhibition rate, barnyardgrass; type: in vivo; details: visually observed 17th to 23rd day after application
How it was run: as §2

[5] = system: greenfoxtail (Setaria viridis L.); assay: Test Example 1: foliar treatment, growth inhibition rate, greenfoxtail; type: in vivo; details: visually observed 17th to 23rd day after application
How it was run: as §2

prickly sida = assay: Test Example 2: soil application on the day after sowing, growth inhibition rate, prickly sida; type: in vivo, Sida spinosa L.; details: 250 g/ha active ingredient, observed on 19th to 24th day
How it was run: as §3

[6] = system: soybean (Glycine max Merr.); assay: Test Example 1: foliar treatment, growth inhibition rate, soybean; type: in vivo; details: visually observed 17th to 23rd day after application
How it was run: as §1

wheat (Triticum spp.) = assay: Test Example 1: foliar treatment, growth inhibition rate, wheat; type: in vivo; details: visually observed 17th to 23rd day after application
How it was run: as §2

velvetleaf = assay: Test Example 2: soil application on the day after sowing, growth inhibition rate, velvetleaf; type: in vivo, Abutilon theophrasti MEDIC.; details: 250 g/ha active ingredient, observed on 19th to 24th day
How it was run: as §3

[7] = system: velvetleaf (Abutilon theophrasti MEDIC.); assay: Test Example 1: foliar treatment, growth inhibition rate, velvetleaf; type: in vivo; details: visually observed 17th to 23rd day after application
How it was run: as §2

wheat = assay: Test Example 2: soil application on the day after sowing, growth inhibition rate, wheat; type: in vivo, Triticum spp.; details: 250 g/ha active ingredient, observed on 19th to 24th day
How it was run: as §3

greenfoxtail = assay: Test Example 2: soil application on the day after sowing, growth inhibition rate, greenfoxtail; type: in vivo, Setaria viridis L.; details: 250 g/ha active ingredient, observed on 19th to 24th day
How it was run: as §3

corn = assay: Test Example 2: soil application on the day after sowing, growth inhibition rate, corn; type: in vivo, Zea mays L.; details: 250 g/ha active ingredient, observed on 19th to 24th day
How it was run: as §3

Structure (SMILES)	Growth inhibition rate (%) redroot pigweed ([2]; 31 g/ha active ingredient)	Growth inhibition rate (%) Prickly sida ([3]; 31 g/ha active ingredient)	Growth inhibition rate (%) Soybean ([6]; 31 g/ha active ingredient)	Growth inhibition rate (%) Crabgrass ([1]; 31 g/ha active ingredient)	Growth inhibition rate (%) Corn (corn (Zea mays L.); 31 g/ha active ingredient)	Growth inhibition rate (%) redroot pigweed (redroot pigweed)	Growth inhibition rate (%) Crabgrass (crabgrass)	Growth inhibition rate (%) Rice (rice (Oryza sativa L.); 31 g/ha active ingredient)	Growth inhibition rate (%) Barnyardgrass (barnyardgrass)	Growth inhibition rate (%) Rice (rice)	Growth inhibition rate (%) Soybean (soybean)	Growth inhibition rate (%) Barnyardgrass ([4]; 31 g/ha active ingredient)	Growth inhibition rate (%) Greenfoxtail ([5]; 31 g/ha active ingredient)	Growth inhibition rate (%) Prickly sida (prickly sida)	Growth inhibition rate (%) Wheat (wheat (Triticum spp.); 31 g/ha active ingredient)	Growth inhibition rate (%) Velvetleaf (velvetleaf)	Growth inhibition rate (%) Velvetleaf ([7]; 31 g/ha active ingredient)	Growth inhibition rate (%) Wheat (wheat)	Growth inhibition rate (%) Greenfoxtail (greenfoxtail)	Growth inhibition rate (%) Corn (corn)	further results
CCSC(=O)Oc1c(C(=O)c2ccc(S(C)(=O)=O)c(OC)c2C)cnn1C [Compound No. 35, 5-(ethylthio)carbonyloxy-1-methylpyrazol-4-yl 3-(methoxy)-2-methyl-4-(methylsulfonyl)phenyl ketone]	90%	40%	90%	–	–	–	–	–	–	–	–	–	–	–	–	–	–	–	–	–	pest or weed control at 31 g/ha ([1]; Digitaria sanguinalis, 31 g/ha active ingredient): 80%; pest or weed control at 31 g/ha (corn (Zea mays L.); Zea mays, 31 g/ha active ingredient): 0%; inhibition at 250 g/ha (redroot pigweed; Amaranthus retroflexus): 95%; inhibition at 250 g/ha (crabgrass; Digitaria sanguinalis): 100%; pest or weed control at 31 g/ha (rice (Oryza sativa L.); Oryza sativa, 31 g/ha active ingredient): 80%; inhibition at 250 g/ha (barnyardgrass; Echinochloa crus-galli): 90%; inhibition at 250 g/ha (rice; Oryza sativa): 90%; inhibition at 250 g/ha (soybean; Glycine max): 0%; pest or weed control at 31 g/ha ([4]; Echinochloa crus-galli, 31 g/ha active ingredient): 90%; pest or weed control at 31 g/ha ([5]; Setaria viridis, 31 g/ha active ingredient): 100%; inhibition at 250 g/ha (prickly sida; Sida spinosa): 90%; pest or weed control at 31 g/ha (wheat (Triticum spp.); Triticum, 31 g/ha active ingredient): 0%; inhibition at 250 g/ha (velvetleaf; Abutilon theophrasti): 20%; pest or weed control at 31 g/ha ([7]; Abutilon theophrasti, 31 g/ha active ingredient): 80%; inhibition at 250 g/ha (wheat; Triticum aestivum): 0%; inhibition at 250 g/ha (greenfoxtail; Setaria viridis): 70%; inhibition at 250 g/ha (corn; Zea mays): 0%
CCSC(=O)Oc1c(C(=O)c2ccc(S(C)(=O)=O)c(OCCSC)c2C)cnn1C [compound 81]	10%	0%	50%	0%	10%	0%	0%	10%	0%	0%	0%	30%	0%	0%	0%	0%	0%	0%	10%	0%	–
COC(=O)c1c(S(C)(=O)=O)ccc(C(=O)c2cnn(C)c2OC(=O)SC(C)C)c1C [compound 86]	95%	80%	85%	90%	30%	100%	100%	95%	95%	90%	0%	95%	95%	90%	20%	95%	95%	0%	95%	0%	–
CCSC(=O)Oc1c(C(=O)c2ccc(S(C)(=O)=O)c(SC)c2Cl)cnn1C [compound 212]	–	–	–	–	–	80%	40%	–	50%	0%	0%	–	–	50%	–	0%	–	0%	0%	0%	Growth inhibition rate (%) Crabgrass ([1]; 63 g/ha active ingredient): 50%; Growth inhibition rate (%) Corn (corn (Zea mays L.); 63 g/ha active ingredient): 0%; Growth inhibition rate (%) redroot pigweed ([2]; 63 g/ha active ingredient): 100%; Growth inhibition rate (%) Rice (rice (Oryza sativa L.); 63 g/ha active ingredient): 30%; Growth inhibition rate (%) Prickly sida ([3]; 63 g/ha active ingredient): 40%; Growth inhibition rate (%) Barnyardgrass ([4]; 63 g/ha active ingredient): 100%; Growth inhibition rate (%) Greenfoxtail ([5]; 63 g/ha active ingredient): 60%; Growth inhibition rate (%) Soybean ([6]; 63 g/ha active ingredient): 90%; Growth inhibition rate (%) Wheat (wheat (Triticum spp.); 63 g/ha active ingredient): 0%; Growth inhibition rate (%) Velvetleaf ([7]; 63 g/ha active ingredient): 60%
CCSC(=O)Oc1c(C(=O)c2ccc(S(C)(=O)=O)c(OC3CCOC3)c2C)cnn1C (stereo not drawn) [compound 217]	100%	70%	98%	100%	0%	95%	95%	90%	80%	80%	0%	100%	98%	60%	40%	20%	80%	0%	60%	0%	–
CCSC(=O)Oc1c(C(=O)c2ccc(S(C)(=O)=O)c(OCCCOC)c2C)cnn1C [compound 218]	100%	70%	95%	100%	0%	100%	80%	98%	90%	80%	0%	100%	95%	50%	10%	30%	90%	0%	90%	0%	–
